# Laboratory results from US20100248365A1, “GANGLIOSIDE BIOSYNTHESIS MODULATORS” (ZACHARON PHARMACEUTICALS, INC., priority 2009, published 2010).
# Legend:
# Assay type in all cases: cell-based
# [1] = tested on: primary human fibroblasts from Tay-Sachs patients; assay: GM2 storage in gangliosidosis fibroblasts (Tay-Sachs), GSL analysis by HPLC; settings: 30 uM, 13 days of treatment
# Description: (§1) Human gangliosidosis fibroblast cells are obtained e.g., from Coriell Institute for Medical Research (http://ccr.coriell.org). The primary cells are cultured in minimum essential medium (MEM) with 15% fetal bovine serum (FBS) as instructed by the supplier.
# The fibroblast cells are cultured in 6 well plates at a density of 5.0E05/well in MEM, 15% FBS. The cells are treated with compounds at 30 uM on the next day of culture. The non-selective glycolipid inhibitors PDMP and DGNJ, which inhibit glucosylceramide synthase, are used as control. All the treatments are performed in triplicate. The medium is changed every 5 days with fresh compounds added. After 13 days of treatment with compounds, the cells are harvested for GSL analysis. The conditioned medium is removed, the monolayer is washed with PBS and detached with 5 mM EDTA in PBS. An aliquot of the cell suspension is taken for cell viability count using Viacount. […]
# Purified 2-AA-labeled oligosaccharides are analyzed by HPLC an method as described by Neville et al. (Anal. Biochem, 2004, 331:275-282). 2-AA-oligosaccharides are separated by NP-HPLC using a 5 μm 4.6×250 mm TSK gel-Amide 80 column (Tosoh) on a Waters Alliance 2690 separation module equipped with a Waters 2475 fluorescence detector set at Exλ360 nm and Emλ425 nm. […] Glucose unites are determined based on a 2-AA-labeled glucose ladder (Ludger, UK).
# [2] = tested on: NCI-H82 cells; assay: Ganglioside profiling of compound-treated NCI-H82 cells (GSL extraction, 2AA labeling, NP-HPLC); settings: for cellular inhibition of specific ganglioside biosynthesis: NCI-H82 cells, 25, 12 and 6 uM, 96 hours, HPLC peaks; for preferential reduction effect on gangliosides GM3 and GD3: relative to other ganglioside species
# Description: NCI-H82 cells were cultured in 6 well plates and treated with compounds at a concentration of 25, 12 and 6 uM in triplicates. PDMP (1-Phenyl-2-decanoylamino-3-morpholino-1-propanol, HCl, EMD #513100) at 25, 12, 6 uM and DGNJ (N-(n-Butyl) deoxygalactonojirimycin, EMD #203994) at 50 uM were used as controls. After 96 hours of compounds treatment the cells were harvested for ganglioside profiling. The suspension cells were centrifuged and the pellets washed once with PBS. Cells were resuspended in 1 ml of PBS, 1/100 of cells were taken to check the cell viability (Viacount)) and for glycosphingolipid (GSL) quantitation and normalization. 1/10 of cells were taken for CTB-FACS to check GM1 expression. The remaining cells were subjected to the ganglioside extraction procedure follow the protocol described by R. Schnaar (Methods in Enzymology, 230: 348-370, 1994).
# Briefly, the cells were pelleted by centrifugation and resuspended in cold distilled-water. The cell suspension was homogenized with Polytron homogenizer. Glycolipids were extracted with chloroform:methanol:water at 4:8:3 ratio. Glycolipids were partitioned by adding 0.173 volume of water to extracted the supernatant. The upper […] phase (glycolipids) was dried in a vacuum centrifuge (SpeedVac).
# Glycans were released from the glycolipids using the enzyme EGCase II (Sigma, Cat #E9030) as described by the manufacture. Released glycans were labeled with 2AA (2-Anthranilic acid, Sigma, Cat #A89804) following the procedures described by D. Neville (Analytical Biochemistry, 331 (2004) 275-282). Non-incorporated 2AA was removed by column chromatography (Discovery DPA-6S). Briefly, the extracted GSLs were digested with EGCase in a 10 ul reaction volume overnight. 40 ul of labeling mix (30 mg/ml 2-AA, 45 mg/ml […] in 4% NaAc and 2% boric acid in methano) were added. The reaction was carried at 80° C. for 45 min. 2AA-labeled glycans were purified by column chromatography (Discovery DPA-6S). The column was preequilibrated with 2×1 ml 97% acetonitrile (ACN) and the sample was loaded by adding 1 ml 97% ACN to the reaction mix. The column was washed 4× with 1 ml 97% ACN and the 2AA-labeled […] were eluted with 2×0.6 ml water. After drying down (SpeedVac), the sample were resuspended and analyzed by normal phase high performance liquid chromatography (NP-HPLC).
# Purified 2AA-GSL glycans were separated on NP-HPLC using a 4.6×250 mm TSK Gel-Amide-80 column (Tosoh Bioscience). The chromatography system consisted of a Waters Alliance 2690/5 separation module and an in-line Waters 2475 fluorescence detector set at Exλ360 nm and Emλ425 nm. All chromatography was performed at 30° C. Solvent A was 20% 100 mM ammonium acetate pH3.85, 80% Acetonitrile, solvent B was 20% 100 mM ammonium acetate pH3.85, 20% ACN and 60% Milli-Q water. The gradient was run from 86% A to 54.7% A in 55 min at flow rate 0.8˜1.2 ml/min (Analytical Biochemistry, 331 (2004) 275-282). Chromatography data was processed using Waters Empower software. Glucose units were determined based on a 2AA-labeled glucose oligomer ladder (Ludger). All 2AA-GSL standards were prepared in house and labeled as glucose units.
# FIGS. 18-25 illustrate the dose dependent effects on individual gangliosides (individual HPLC peaks) of various compounds as determined according to the methods of Example 5, but with additional and slightly altered concentration levels used for test compound dosing.
# [3] = tested on: primary human fibroblasts from Sandhoff patients; assay: GM2 storage in gangliosidosis fibroblasts (Sandhoff), GSL analysis by HPLC; settings: 30 uM, 13 days of treatment
# Description: as §1
# The fibroblast cells are cultured in 6 well plates at a density of 5.0E05/well in MEM, 15% FBS. The cells are treated with compounds at 30 uM on the next day of culture. The non-selective glycolipid inhibitors PDMP and DGNJ, which inhibit glucosylceramide synthase, are used as control. All the treatments are performed in triplicate. The medium is changed every 5 days with fresh compounds added. After 13 days of treatment with compounds, the cells are harvested for GSL analysis. The conditioned medium is removed, the monolayer is washed with PBS and detached with 5 mM EDTA in PBS. An aliquot of the cell suspension is taken for cell viability count using Viacount.
# The cells are spun down and the cell pellets are resuspended in water for GSL extraction. The cells are homogenized using a homogenizer at 6500 rpm for 30 seconds twice. Gangliosides are extracted from homogenates by using chloroform:methanol:water (4:8:3) followed by partitioning. The ganglioside containing upper phase is taken and dried down in a SpeedVac.
# Purified total GSLs are subjected to endo-glucoceramidase (EGCase II, Sigma) treatment to release free glycans. ˜10 ug protein equivalent GSL is digested with 1 mU EGCaseII in 15 ul incubation buffer containing 50 mM sodium acetate, pH 5.5 and 0.4% TX100. Digestion is performed at 37° C. overnight. Released free glycans are tagged with anthranilic Acid (2-AA, Sigma). A labeling mix is prepared freshly in 4% sodium acetate (NaAc.3H2O) and 2% boric acid/methanol(w/v) by adding 45 mg NaBH3CN first and then adding 30 mg 2AA in a 1 ml solution. 40 ul of this labeling mix is added directly into digestion mix. The labeling is carried out at 80° C. for 45˜60 min. Free labeling reagents are removed by passing the reaction mix through a Discovery DPA-6S (Sigma) column. The DPA-6S column (50 mg) is pre-equilibrated twice with 1 ml acetonitrile (ACN). The reaction mixture is cooled down, 1 ml of 97% ACN is added, and the sample is loaded onto the column. The column is washed with four times with 1 ml of 99% ACN and once with 0.5 ml of 97% ACN. 2AA-glycans are eluted in two time 600 ul water. The eluates are dried down in a SpeedVac and subjected to HPLC analysis.
# Purified 2-AA-labeled oligosaccharides are analyzed by HPLC an method as described by Neville et al. (Anal. Biochem, 2004, 331:275-282). 2-AA-oligosaccharides are separated by NP-HPLC using a 5 μm 4.6×250 mm TSK gel-Amide 80 column (Tosoh) on a Waters Alliance 2690 separation module equipped with a Waters 2475 fluorescence detector set at Exλ360 nm and Emλ425 nm. Solvent A is 80% ACN and 20% 100 mM ammonium acetate (AmAc), pH 3.85. Solvent B is 60% Milli-Q water, 20% ACN and 20% 100 mM AmAc, pH 3.85. The gradient profile is listed below. Glucose unites are determined based on a 2-AA-labeled glucose ladder (Ludger, UK).
# [4] = NCI-H82 cells, HPLC peak area as % of untreated
# [5] = NCI-H82 cells, HPLC peak areas as % of untreated
smiles,measurement,setting,value
"Cc1cc(OCC(=O)Nc2ccc(N(C)C)cc2)cc(C)c1Cl [compound 21, 2-(4-chloro-3,5-dimethylphenoxy)-N-(4-(dimethylamino)phenyl)acetamide]",reduction of GM2 storage in primary human fibroblasts from Tay-Sachs patients,[1],reduction
"COc1cc(/C=C/c2ccc3cccc(OCc4ccccc4)c3n2)cc([N+](=O)[O-])c1OC(C)=O [compound 15, (E)-4-(2-(8-(benzyloxy)quinolin-2-yl)vinyl)-2-methoxy-6-nitrophenyl acetate]",cellular inhibition of specific ganglioside biosynthesis,[2],inhibition
"CC(C)(C)c1cc(C(C)(C)C)c2nc(-c3cc(Br)ccc3O)oc2c1O [compound 5, 2-(5-bromo-2-hydroxyphenyl)-4,6-di-tert-butylbenzo[d]oxazol-7-ol]",dose dependent reduction effect on ganglioside GD2,[2]; [4],dose dependent reduction
same,preferential reduction effect on 2 series gangliosides GM2 and GD2 relative to the 3 series gangliosides GM3 and GD3,[2]; [5],preferential reduction
same,reduction of GM2 storage in primary human fibroblasts from Sandhoff patients,[3],reduction
"COc1ccc(/C(C)=N/Nc2nc3ccccc3nc2C)cc1OC [compound 19, (E)-2-(2-(1-(3,4-dimethoxyphenyl)ethylidene)hydrazinyl)-3-methylquinoxaline]",dose dependent reduction effect on ganglioside GM1,[2]; [4],dose dependent reduction
same,reduction of GM2 storage in primary human fibroblasts from Sandhoff patients,[3],reduction
"CSc1ccc(-c2ncnn2-c2sc3c(c2C#N)CCCCC3)cc1 [compound 3, 2-(5-(4-(methylthio)phenyl)-1H-1,2,4-triazol-1-yl)-5,6,7,8-tetrahydro-4H-cyclohepta[b]thiophene-3-carbonitrile]",preferential reduction effect on gangliosides GM3 and GD3,[2]; NCI-H82 cells,preferential reduction
same,reduction of GM2 storage in primary human fibroblasts from Sandhoff patients,[3],reduction
"CC(C)CNc1oc(-c2cccs2)nc1C#N [compound 8, 5-(isobutylamino)-2-(thiophen-2-yl)oxazole-4-carbonitrile]",preferential reduction effect on gangliosides GM3 and GD3,[2]; NCI-H82 cells,preferential reduction
same,reduction of GM2 storage in primary human fibroblasts from Sandhoff patients,[3],reduction
"Cc1ccc(C=NN2CCN(c3ccc(Cl)cc3)CC2)o1 [compound 17, 4-(4-chlorophenyl)-N-((5-methylfuran-2-yl)methylene)piperazin-1-amine]",cellular inhibition of specific ganglioside biosynthesis,[2],inhibition
same,dose dependent reduction effect on ganglioside GM3,[2]; [4],dose dependent reduction
same,reduction of GM2 storage in primary human fibroblasts from Sandhoff patients,[3],reduction
"CN(C)c1ccc(-c2nc3c(C(C)(C)C)cc(C(C)(C)C)c(O)c3o2)cc1 [compound 2, 4,6-di-tert-butyl-2-(4-(dimethylamino)phenyl)benzo[d]oxazol-7-ol]",cellular inhibition of specific ganglioside biosynthesis,[2],inhibition
same,dose dependent reduction effect on ganglioside GD1b,[2]; [4],dose dependent reduction
"CC(C)(C)C1=CC(=Nc2ccc(Br)cc2)C=C(C(C)(C)C)C1=O [compound 18, 4-(4-bromophenylimino)-2,6-di-tert-butylcyclohexa-2,5-dienone]",dose dependent reduction effect on ganglioside GM2,[2]; [4],dose dependent reduction
"COc1cccc(-c2nc3c(C(C)(C)C)cc(C(C)(C)C)c(O)c3o2)c1OC [compound 20, 4,6-di-tert-butyl-2-(2,3-dimethoxyphenyl)benzo[d]oxazol-7-ol]",reduction of GM2 storage in primary human fibroblasts from Sandhoff patients,[3],reduction
"CCCCCCCCCC(=O)NC(CN1CCOCC1)C(O)c1ccccc1 (stereo not drawn) [PDMP, 1-Phenyl-2-decanoylamino-3-morpholino-1-propanol, reference compound]",cellular inhibition of specific ganglioside biosynthesis,[2],inhibition
same,reduction of GM2 storage in primary human fibroblasts from Sandhoff patients,[3],reduction
"CCCCN1C[C@H](O)[C@@H](O)[C@@H](O)[C@H]1CO [DGNJ, N-(n-Butyl) deoxygalactonojirimycin, reference compound]",reduction of GM2 storage in primary human fibroblasts from Sandhoff patients,[3],reduction
"N#Cc1c(-n2ncnc2-c2ccc(F)cc2)sc2c1CCCCC2 [compound 4, 2-(5-(4-fluorophenyl)-1H-1,2,4-triazol-1-yl)-5,6,7,8-tetrahydro-4H-cyclohepta[b]thiophene-3-carbonitrile]",dose dependent reduction effect on ganglioside GD3,[2]; [4],dose dependent reduction
same,reduction in B series gangliosides relative to A series gangliosides,[2]; [5],reduction
"CC1=C(C(=O)Nc2ccccc2)C(c2ccccc2)C(C#N)=C(SCC(=O)NCc2ccccc2)N1 (stereo not drawn) [compound 7, 6-(2-(benzylamino)-2-oxoethylthio)-5-cyano-2-methyl-N,4-diphenyl-1,4-dihydropyridine-3-carboxamide]",reduction of GM2 storage in primary human fibroblasts from Sandhoff patients,[3],reduction
